Experimental data from ChEMBL document CHEMBL1150728, “Antimalarial agents, 4. Synthesis of a brusatol analog and biological activity of brusatol-related compounds” (1987).
Converted amounts (≈) assume the structure as drawn.

System: Plasmodium falciparum
Assay: Antimicrobial activity against chloroquine-resistant Plasmodium falciparum Smith
Assay type: functional
Settings: read-out: ED50 (the source's name)

| SMILES | EC50 |
| --- | --- |
| COC(=O)[C@@]12OC[C@]34[C@H]([C@@H](O)[C@@H]1O)[C@@]1(C)C=C(O[C@@H]5O[C@H](CO)[C@@H](O)[C@H](O)[C@H]5O)C(=O)[C@@H](C)[C@@H]1C[C@H]3OC(=O)[C@H](OC(=O)C=C(C)C)[C@@H]24 [BRUCEOSIDE A] | 0.581 µg/mL (≈ 0.851 µM) |
| CCCCCC/C=C/C(=O)O[C@H]1C(=O)O[C@@H]2C[C@H]3C(C)=C(O)C(=O)C[C@]3(C)[C@H]3[C@@H](O)[C@H](O)[C@@]4(C(=O)OC)OC[C@]32[C@@H]14 | 0.0617 µg/mL (≈ 0.107 µM) |
| COC(=O)[C@@]12OC[C@]34[C@H]([C@@H](O)[C@@H]1O)[C@@]1(C)CC(=O)C(O)=C(C)[C@@H]1C[C@H]3OC(=O)[C@H](O)[C@@H]24 [BRUCEOLIDE] | 0.0752 µg/mL (≈ 0.172 µM) |
| COC(=O)[C@]12OC[C@]34[C@H]([C@@H](O)[C@@H]1O)[C@@]1(C)CC(=O)C(O)=C(C)[C@@H]1C[C@H]3OC(=O)[C@H](OC(=O)C=C(C)C)[C@@H]24 [BRUSATOL] | 0.00758 µg/mL (≈ 0.0146 µM) |
